The assay has as its target T1, recombinant PDE7A1 (Homo sapiens, UniProt Q13946).
T1 construct: made in house; host or cells: SF21 insect cells (baculovirus; virus made in SF9)
As to the kind of experiment: Inhibition of PDE7 activity, modified SPA (scintillation proximity assay) test. Type of assay: biochemical. The following applies: recombinant PDE7A1 (1000×g supernatant of SF21 cells), 0.5 μM cAMP, [3H]cAMP SPA, 37° C.; read-out: −log IC50 (inhibition of PDE7 activity) (converted). The text has this: Cloning and expression of PDE7: The cDNAs for PDE7A1 and 7A2 (GenBank Acc-: L12052 and u67932, respectively) were isolated, using RT-PCR, from total cellular RNA derived from the T cell line CCRF-CEM and cloned into the cloning vector pCR2.1 (Invitrogen, Groningen, NL) under standard conditions (the manufacturer's instructions). For expression in insect cells, the cDNAs were subcloned into the baculo expression vector pCRBac (Invitrogen, Groningen, NL).
The recombinant baculoviruses were prepared, by means of homologous recombination in SF9 insect cells, by cotransfecting the plasmids containing baculovirus DNA (wild type, wt) Bac-N-Blue (Invitrogen, Groningen, NL) for PDE7A1 and containing Baculo-Gold DNA (Pharmingen, Hamburg) using a standard protocol (Pharmingen, Hamburg). Wt virus-free recombinant virus supernatants were selected using plaque assay methods. After that, high-titre virus supernatants were prepared by amplifying 3 times. For determining the enzyme activities, the PDEs were expressed in SF21 cells by infecting 2×10^6 cells/ml with an MOI (multiplicity of infection) ≈5 in serum-free SF900 medium (Life Technologies, Paisley, UK) in spinner flasks. The cells were cultured at 28° C., and at a rotationall speed of 75 rpm, for 48 hours, after which they were pelleted for 5-10 min at 1000 g and 4° C. and then resuspended in 1×PBS at a concentration of 1-3×10^6 cells/ml. The protein content was determined by the Bradford method (BioRad, Munich) using BSA as the standard.
The SF21 insect cells are resuspended, at a concentration of approx. 10^7 cells/ml, in ice-cold (4° C.) homogenization buffer (20 mM Tris, pH 8.2, containing the following additions: 140 mM NaCl, 3.8 mM KCl, 1 mM EGTA, 1 mM MgCl2, 1 mM β-mercaptoethanol, 2 mM benzamidine, 0.4 mM Pefablock, 10 μM leupeptin, 10 μM pepstatin A, 5 μM trypsin inhibitor) and disrupted by ultrasonication. The homogenate is then centrifuged for 10 min at 1000×g and the supernatant is stored at −80° C. until subsequent use (see below).
The PDE7 activity was inhibited by said compounds in a modified SPA (scintillation proximity assay) test, supplied by Amersham Pharmacia Biotech (see procedural instructions “Phosphodiesterase [3H]cAMP SPA enzyme assay, code TRKQ 7090”), carried out in 96-well microtitre plates (MTPs). The test volume is 100 μl and contains 20 mM Tris buffer (pH 7.4), 0.1 mg of BSA (bovine serum albumin)/ml, 5 mM Mg^2+, 0.5 μM cAMP (including about 50,000 cpm of [3H]cAMP), 2 μl of the respective substance dilution in DMSO and sufficient recombinant PDE7A1 (1000×g supernatant, see above) to ensure that 15-20% of cAMP is converted under said experimental conditions. After a preincubation of 5 min at 37° C., the reaction is started by adding a substrate (cAMP) and the assays are incubated for a further 15 min; after that, they are stopped by adding SPA beads (50 μl). In accordance with the manufacturer's instructions, the SPA beads had previously been resuspended in water and diluted 1:3 (v/v) and added to IBMX (3 mM). After the beads have been sedimented (>30 min), the MTPs are analyzed in commercially available measuring appliances and the corresponding IC50 values of the compounds for the inhibition of PDE7 activity are determined from concentration-effect curves by means of non-linear regression.
The inhibitory values [inhibitory concentration as −logIC50 (mol/l)] which were determined for the compounds according to the invention are shown in the following table 1, in which the numbers of the compounds correspond to the numbers of the examples.
In general terms: In a scintillation proximity assay essentially only radioactivity close to the scintillant gives light.
T1 sequence (Q13946 whole entry): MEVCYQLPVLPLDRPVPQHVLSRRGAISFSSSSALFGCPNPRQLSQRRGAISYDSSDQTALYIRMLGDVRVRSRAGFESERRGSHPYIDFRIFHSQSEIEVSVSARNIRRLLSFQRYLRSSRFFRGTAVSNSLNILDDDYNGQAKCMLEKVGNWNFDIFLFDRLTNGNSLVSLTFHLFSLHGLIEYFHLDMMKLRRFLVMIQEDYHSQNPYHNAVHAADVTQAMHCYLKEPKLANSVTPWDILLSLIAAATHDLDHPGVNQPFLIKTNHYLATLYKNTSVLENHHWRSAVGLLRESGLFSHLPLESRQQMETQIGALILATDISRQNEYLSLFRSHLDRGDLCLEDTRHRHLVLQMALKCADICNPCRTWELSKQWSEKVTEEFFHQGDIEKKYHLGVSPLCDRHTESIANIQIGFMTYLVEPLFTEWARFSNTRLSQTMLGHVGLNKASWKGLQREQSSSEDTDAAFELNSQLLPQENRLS
Consider `O=S(=O)(Nc1ccc(C2=NCCc3ccc(Cl)cc32)cc1)c1cc(Br)c(Cl)s1` [Compound 6m, 1-[4-(4-Bromo-5chlorothiophene-2-sulfonamido)phenyl]-7-chloro-3,4-dihydroisoquinoline], for which the IC50 was 380 nM.
The result for `COc1cc(C2=NCCc3ccccc32)ccc1NS(=O)(=O)c1ccc(-c2ccon2)s1` [Compound 2a, 1-[4-(5-(Isoxazol-3-yl)-thiophene-2-sulfonamido)-3-methoxyphenyl]-3,4-dihydroisoquinoline] reads 295 nM.
As for `O=S(=O)(Nc1ccc(C2=NCCc3ccc(F)cc32)cc1)c1ccc2ccccc2c1` [Compound 4e, 1-[4-(Naphthalene-2-sulfonamido)phenyl]-7-fluoro-3,4-dihydroisoquinoline], the 50% inhibitory concentration (IC50) is 389 nM.
The result for `COc1cc(C2=NCCc3ccc(Cl)cc32)ccc1NS(=O)(=O)c1ccc(C)cc1` [Compound 1b, 1-[4-(4-Methylbenzenesulfonamido)-3-methoxyphenyl]-7-chloro-3,4-dihydroisoquinoline] reads 123 nM; that for `O=S(=O)(C=Cc1ccccc1)Nc1ccc(C2=NCCc3ccc(Cl)cc32)cc1` [Compound 6h, 1-[4-(2-Phenylethenesulfonamido)phenyl]-7-chloro-3,4-dihydroisoquinoline], 245 nM.
The value for `COc1cc(C2=NCCc3ccc(Cl)cc32)ccc1NS(=O)(=O)c1ccc(OC(F)(F)F)cc1` [Compound 1a, 1-[4-(4-Trifluoromethoxybenzenesulfonamido)-3-methoxyphenyl]-7-chloro-3,4-dihydroisoquinoline] was 32.4 nM.
Take `O=S(=O)(Nc1ccc(C2=NCCc3ccc(F)cc32)cc1)c1cccc(C(F)(F)F)c1` [Compound 4c, 1-[4-(3-Trifluoromethylbenzenesulfonamido)phenyl]-7-fluoro-3,4-dihydroisoquinoline]: the IC50 is 257 nM.

As a reminder, the IC50 is the concentration that gives 50% inhibition.
